These results are taken from paper PMC7151106 (Pharmaceutics, 2020).

One data set addresses T1, SGLT2 (Homo sapiens, UniProt P31639).
T1 construct: host or cells: CHO
T1 sequence (P31639 1-672): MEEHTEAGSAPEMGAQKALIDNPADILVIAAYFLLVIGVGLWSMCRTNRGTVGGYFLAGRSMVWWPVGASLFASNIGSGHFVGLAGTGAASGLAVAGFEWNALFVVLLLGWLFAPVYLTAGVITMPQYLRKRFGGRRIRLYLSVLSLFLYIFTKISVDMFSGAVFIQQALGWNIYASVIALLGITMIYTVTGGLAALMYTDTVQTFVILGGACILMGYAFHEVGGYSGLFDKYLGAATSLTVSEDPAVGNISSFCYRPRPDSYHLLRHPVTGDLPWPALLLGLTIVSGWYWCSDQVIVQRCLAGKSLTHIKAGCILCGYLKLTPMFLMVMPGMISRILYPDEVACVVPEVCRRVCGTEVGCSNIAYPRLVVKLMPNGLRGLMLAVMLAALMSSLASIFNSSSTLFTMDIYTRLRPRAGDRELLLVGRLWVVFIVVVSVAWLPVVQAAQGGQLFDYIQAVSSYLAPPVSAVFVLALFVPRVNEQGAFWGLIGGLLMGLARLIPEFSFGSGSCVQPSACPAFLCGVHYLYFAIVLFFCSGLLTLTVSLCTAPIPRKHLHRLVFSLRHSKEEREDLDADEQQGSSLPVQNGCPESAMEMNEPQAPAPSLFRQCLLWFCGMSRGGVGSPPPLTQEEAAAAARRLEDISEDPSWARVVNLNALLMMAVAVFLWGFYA
As to conditions: read-out: IC50 values of previous reports; cited from earlier work.

A short description of another data set: in vivo. As to conditions: ICR, mouse, po, 1 mg/kg.
Data set [1] is described as follows: Protein binding in 20% mouse kidney homogenate (rapid equilibrium dialysis). The following applies: corrected for dilution, 1000 ng/mL, 4 h at 37 °C, mean ± SD, triplicate. A general note: Equilibrium dialysis compares concentrations on both sides of a semipermeable membrane.
Description: Four hours after incubation at 37 °C on a shaking incubator at 300 rpm, aliquots (50 μL) were collected from both the sample and buffer chambers and treated with equal volumes of fresh PBS and blank plasma or blank kidney homogenate, respectively, to match the sample matrices. The matrix-matched sample (100 μL) was added 100 μL of aqueous solution of D4-DWP16001 (IS, 20 ng/mL), and vigorously mixed with 1000 μL MTBE for 15 min. After centrifugation at 16,000 g for 5 min, samples were kept for 1 h at −80 °C. An organic upper layer was transferred to a clean tube and evaporated to dryness under a gentle stream of nitrogen. Then, the dried extract was reconstituted in 300 µL of mobile phase and a 3 µL aliquot of the reconstituent was injected into the LC-MS/MS system.
Kidney protein binding was calculated using the following equations, Equations (2) and (3), and a dilution factor (D as a value of 5) for tissue homogenates was used since we used 20% kidney homogenates [6, 7]. (2) Diluted free drug fraction (fu′)=Drug concentration in buffer chamber/Drug concentration in kidney homogenate chamber, (3) Undiluted free drug fraction (fu)=1/D/(1/fu^′−1)+1/D=fu′×0.2/1−fu′×0.8.

Description for in vivo: An aliquot (30 µL) of each plasma sample was stored at −80 °C until the analysis. […] An aliquot (50 µL) of each kidney homogenate sample was stored at −80 °C until the analysis.
For the analysis of SGLT2 inhibitors, aliquots of plasma (30 µL) and kidney homogenate (50 µL) were added to 100 μL of aqueous solution of D4-DWP16001 (IS, 20 ng/mL), and vigorously mixed with 500 μL methyl tert-butyl ether (MTBE) for 15 min. After centrifugation at 16,000 g for 5 min, samples were kept for 1 h at −80 °C to make an aqueous layer freeze. An organic upper layer was transferred to a clean tube and evaporated to dryness under a gentle stream of nitrogen. Then, the dried extract was reconstituted in 150 µL of mobile phase, and a 3 µL aliquot of the reconstituent was injected into a liquid chromatography–tandem mass spectrometry (LC–MS/MS) system.
Pharmacokinetic parameters, such as the area under plasma concentration-time curve from zero to infinity (AUC), were calculated from plasma concentration vs time curves using non-compartment analysis with WinNonlin (version 5.1; Pharsights, Cary, NC, USA). The AUC ratios (i.e., ratios of kidney AUC to plasma AUC) were calculated by dividing the AUC of the three SGLT2 inhibitors in the kidney by the plasma AUC values of the three SGLT2 inhibitors.

By IC50 is commonly meant the point on the concentration scale where inhibition reaches its midpoint. By logP is commonly meant a log measure of how a compound divides between an organic and an aqueous phase. A lower logP goes with a more hydrophilic compound. What is called AUC(0-inf) is the area under the concentration-time curve extrapolated to infinity. A lower AUC(0-inf) goes with low exposure. What is called AUC(0-t) is exposure summed from dosing to a finite time, without extrapolation to infinity. As a reminder, the Cmax is the highest concentration seen after dosing. The Tmax is the time at which the peak concentration occurs. For `OC[C@H]1O[C@@H](c2ccc(F)c(Cc3cc4ccccc4s3)c2)[C@H](O)[C@@H](O)[C@@H]1O` [Ipragliflozin, ipragliflozin], the IC50 at SGLT2 was 6.75 to 8.07 nM. The logP in the data set “physchem” amounted to 2.56. In “in vivo”, this compound had an AUC(0-inf) of 1970 ± 410 ng·h/mL, an AUC(0-t) of 1960 ± 410 ng·h/mL, a Cmax of 410 ± 59.1 ng/mL and a Kp of 38.4 ± 5.3. Also, the Tmax in “in vivo” is 36 ± 12 min.

As for `OC[C@H]1O[C@@H](c2cc(Cc3ccc(C4CC4)cc3)c(Cl)c3c2CCO3)[C@H](O)[C@@H](O)[C@@H]1O` [DWP16001], in data set [1], the “Protein Binding (% Bound) Kidney” value was found to be 97.24 ± 0.08 % Bound.
